# Measurements reported in patent US20140065241A1, “USES OF (-)-PERHEXILINE” (Adelaide Research & Innovation Pty Ltd, priority 2012, published 2014).
# Legend:
# [1] = clinical use of racemic drug; cited from earlier work
# [2] = system: rat isoprenaline model of heart failure; assay: Plasma troponin T in rat isoprenaline model of heart failure; type: in vivo; settings: DA rats; 2 weeks pre-treatment 200 mg/kg/day; isoprenaline 50 mg/kg i.p.; plasma 3 hr after
# Description: The effect of racemic perhexyline, (+)-perhexyline and (−)-perhexyline on myocardial damage in a rat isoprenaline model of heart failure, using Troponin T as an indirect measure of myocardial damage was investigated. The use of a rat isoprenaline model of heart failure is as described in Teerlink, J R et al. (1994) “Progressive ventricular remodeling in response to diffuse isoproterenol-induced myocardial necrosis in rats” Circ Res, 75: 105-13.
# DA rats were treated for 2 weeks with vehicle or 200 mg/kg/day of racemic, (+)- or (−)-perhexyline maleate, on day 15 myocardial necrosis was induced by i.p. injection of 50 mg/kg isoprenaline, with a second group of controls receiving an i.p. injection of saline (n=5). Cardiac troponin T levels were measured in plasma collected 3 hr following treatment by venipuncture of the tail vein.
# Dark Agouti rats = assay: Peripheral neural function by von Frey filament testing (paw withdrawal threshold); type: in vivo, rat; settings: DA rats treated for 8 weeks, vs vehicle
# Description: At 56 days, neuronal function was measured prior to euthanasia using von Frey filament testing. The thickness of each filament corresponds to a specific amount of pressure (in grams). Each animal was placed in a specifically designed plastic container, with the bottom replaced by mesh flooring. The animal was left for 10-15 minutes to settle into its new environment. In ascending order, von Frey filaments were applied from beneath the mesh flooring to the plantar surface of the paw until the filament buckled and was held there for a total of 10 seconds. A positive response was noted if the paw was withdrawn within the 10-second period. If a filament induced 6 positive responses, the grams corresponding to that filament were recorded as the paw withdrawal threshold.
# To test the effect of each enantiomer on peripheral neural function, a Von Frey hairs model was used.
# [3] = Perhexyline enantiomer concentrations in plasma, liver and heart; type: in vivo, rat; settings: DA rats; for plasma concentration: pure enantiomer 200 mg/kg daily for 8 weeks
# Description: Adult female Dark Agouti (DA) rats (n=4 in each group) were administered 200 mg/kg daily of vehicle, racemic-, (+) or (−)-perhexyline maleate for a period of 2 months. The perhexyline maleate compound was administered mixed with peanut paste and coated onto standard rat chow. On day 56 of dosing, animals were anesthetized and blood was collected via a cardiac puncture in order to determine the concentrations of perhexyline enantiomers. Animals were then euthanized and hepatic, cardiac and neuronal tissues were harvested in order to determine perhexyline enantiomer and metabolite tissue concentrations and morphological changes. Tissues were cut in half and either immediately snap frozen in liquid nitrogen or placed into fixative solution for electron microscopy analysis.
# Plasma, liver and hear concentrations were measured in Dark Agouti rats treated for 8 weeks with 200 mg/kg/day of (+)-, (−)- or racemic-perhexyline (animals as described in Example 2) using the method of Davies et al., Journal of Chromatography B, 832 (2006) 114-120.
# The data are shown in FIGS. 6A and 6B with concentrations adjusted to the equivalent of a 100 mg/kg enantiomeric dose.
# human neutrophil NOX2 = biological target: T1, human neutrophil NOX2 (Homo sapiens, UniProt P04839); assay: Inhibition of ex vivo superoxide formation by NOX2 in human neutrophils; type: cell-based; settings: neutrophils from 11 healthy young volunteers
# T1 construct: Using neutrophils from 11 healthy young volunteers; endogenous in cells; host or cells: human neutrophils from healthy volunteers
# T1 sequence (P04839 2-570 limits assumed): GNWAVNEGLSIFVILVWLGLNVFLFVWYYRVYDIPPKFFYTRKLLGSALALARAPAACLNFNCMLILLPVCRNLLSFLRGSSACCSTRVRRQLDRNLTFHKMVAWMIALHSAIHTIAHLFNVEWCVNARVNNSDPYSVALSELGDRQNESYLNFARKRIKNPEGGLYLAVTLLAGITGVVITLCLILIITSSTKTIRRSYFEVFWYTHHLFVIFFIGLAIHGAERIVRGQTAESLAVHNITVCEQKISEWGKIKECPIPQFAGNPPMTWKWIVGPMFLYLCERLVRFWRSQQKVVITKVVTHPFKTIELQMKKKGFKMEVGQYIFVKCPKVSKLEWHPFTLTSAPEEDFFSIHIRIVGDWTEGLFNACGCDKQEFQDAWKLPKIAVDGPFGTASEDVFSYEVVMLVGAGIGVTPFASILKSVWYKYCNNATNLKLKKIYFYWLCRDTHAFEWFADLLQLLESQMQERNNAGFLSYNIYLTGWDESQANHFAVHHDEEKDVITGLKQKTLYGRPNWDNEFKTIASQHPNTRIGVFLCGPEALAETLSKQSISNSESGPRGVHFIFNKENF
# T1 sequence (P13498 2-195 partner limits assumed): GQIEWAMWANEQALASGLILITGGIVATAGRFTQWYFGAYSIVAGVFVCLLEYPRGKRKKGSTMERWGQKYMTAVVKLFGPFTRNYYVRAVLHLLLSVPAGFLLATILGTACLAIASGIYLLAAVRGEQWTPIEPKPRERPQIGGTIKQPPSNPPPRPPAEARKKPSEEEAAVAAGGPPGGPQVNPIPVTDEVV
# Description: As an index of anti-inflammatory and nitric oxide-sparing potential, the relative potency of the enantiomers as inhibitors of ex vivo superoxide formation by NOX2 was investigated in human neutrophils.
# Whilst this enantioselectivity is consistent with different therapeutic indices for the enantiomers, it can be seen that both still contribute to perhexyline's anti-inflammatory effects.
# rat isoprenaline model = assay: Histological assessment of isoprenaline-induced myocardial injury; type: in vivo; settings: DA rats; 2 weeks pre-treatment 200 mg/kg/day; isoprenaline 50 mg/kg
# Description: DA rats were treated for 2 weeks with vehicle or 200 mg/kg/day of racemic, (+)- or (−)-perhexyline maleate, on day 15 myocardial necrosis was induced by i.p. injection of 50 mg/kg isoprenaline, with a second group of controls receiving an i.p. injection of saline (n=5). Cardiac troponin T levels were measured in plasma collected 3 hr following treatment by venipuncture of the tail vein. […] The severity and extent of myocardial injury were assessed by a pathologist who was blinded to the treatment, and classified as: 0—no change; 1—mild (single mild focus of myocyte damage or multiple small foci with mild inflammatory cell infiltrate); 2—moderate (multiple larger foci of myocyte damage with moderate inflammatory cell infiltrate) and 3—severe (multiple larger foci of myocyte damage with severe inflammatory cell infiltrate or broad zone of necrosis with extensive inflammation). Results were analysed by dividing animals into two response groups 0-1: no or mild >1: moderate to severe.
# TXNIP = assay: Myocardial TXNIP staining (immunohistochemistry) after isoprenaline; type: in vivo, rat; settings: DA rats; 2 weeks pre-treatment 200 mg/kg/day; isoprenaline 50 mg/kg
# Description: CONT; *=P<0.05 c.f. ISO; ̂=P=0.05 c.f. ISO. […] T×NIP is a regulatory protein which couples substrate utilization and redox state. Increased expression of T×NIP is associated with increased oxidative stress, decreased insulin secretion, decreased glucose uptake and suppression of PPARα (a major nuclear transcription factor regulating lipid metabolism). Thus, both (−)-perhexyline and (+)-perhexyline may also exert cardioprotection via inhibition of T×NIP.
# Dark Agouti (DA) rats = assay: Histological (electron microscopy) assessment of hepatic lipid and glycogen content after 8 weeks of dosing; type: in vivo, rat; settings: for hepatic glycogen content / hepatic lipid content: 200 mg/kg daily for 8 weeks, vs vehicle, 200 mg/kg
# Description: Adult female Dark Agouti (DA) rats (n=4 in each group) were administered 200 mg/kg daily of vehicle, racemic-, (+) or (−)-perhexyline maleate for a period of 2 months. The perhexyline maleate compound was administered mixed with peanut paste and coated onto standard rat chow. On day 56 of dosing, animals were anesthetized and blood was collected via a cardiac puncture in order to determine the concentrations of perhexyline enantiomers. Animals were then euthanized and hepatic, cardiac and neuronal tissues were harvested in order to determine perhexyline enantiomer and metabolite tissue concentrations and morphological changes. Tissues were cut in half and either immediately snap frozen in liquid nitrogen or placed into fixative solution for electron microscopy analysis. Tissue was dissected into cubes of approximately 0.5 mm in each dimension and was fixed for one hour in electron microscopy (EM) fixative (4% formaldehyde and 1.5% glutaraldehyde in sodium cacodylate buffer, pH 7.2). The fixed tissue was post-fixed in 2% osmium tetroxide in sodium cacodylate buffer, en bloc stained with 2% uranyl acetate and dehydrated through 70%, 90% and 100% ethanol. Then, the tissue was processed through 1,2-epoxypropane, a 50/50 mixture of 1,2-epoxypropane and Procure 812 resin (Electron Microscopy Sciences, Fort Washington, USA) and two changes of 100% resin. Tissue and resin were transferred to Beem capsules and placed in an oven overnight at 90° C. Survey sections of tissue blocks were cut with glass knives and stained with Toluidine Blue. Thin sections were cut at approximately 100 nm thickness on a Porter-Blum ultramicrotome (Sorvall, Newtown, USA) using a diamond knife (Micro Star Technologies, Huntsville, USA). Thin sections were stained with Reynolds' lead citrate and examined in a Hitachi H-600 transmission electron microscope (Tokyo, Japan 1983). Glycogen and lipids were identified and total content was measured as a percentage of the field of view.
# [4] = system: pyruvate dehydrogenase (PDH); assay: Total and phosphorylated pyruvate dehydrogenase in heart tissue by Western blots; type: in vivo; settings: DA rat heart; 2 weeks 200 mg/kg/day; isoprenaline 50 mg/kg
# Description: DA rats were treated for 2 weeks with vehicle or 200 mg/kg/day of racemic, (+)- or (−)-perhexyline maleate, on day 15 myocardial necrosis was induced by i.p. injection of 50 mg/kg isoprenaline (HCl salt), with a second group of controls receiving an i.p. injection of saline (n=5-8). Total and phosphorylated pyruvate dehydrogenase in heart tissue was measured by Western blots.
# [5] = 8 weeks 200 mg/kg/day, dose-adjusted
compound,measurement,setting,value
"C1CCC(C(CC2CCCCN2)C2CCCCC2)CC1 (racemic) [racemic perhexyline, 2-(2,2-dicyclohexylethyl) piperidine]","plasma concentration at which severe adverse effects (hepatotoxicity, peripheral neuropathy) are typically seen",[1],greater than 0.6 mg/L
same,recipients with adverse effects,[1],more than 60%
same,effect on isoprenaline-induced rise in plasma troponin T,[2],not affected
"C1CCC(C(CC2CCCCN2)C2CCCCC2)CC1 (single isomer, unassigned; (+)) [(+)-perhexyline, (+)-enantiomer of perhexyline]",neural sensory function (Von Frey hairs),Dark Agouti rats,significant decline
same,"distribution into liver, pure enantiomer compared to the racemic formulation",[3]; [5],significantly increased
same,plasma concentration,[3],0.52 to 0.80 mg/L
same,EC50,human neutrophil NOX2,1800 nM
same,isoprenaline-induced myocardial damage (histological score),rat isoprenaline model,only partially attenuated
same,effect on isoprenaline-induced rise in plasma troponin T,[2],not affected
same,isoprenaline-induced increase in myocardial TXNIP staining,TXNIP,attenuated
same,hepatic glycogen content,Dark Agouti (DA) rats,appeared to decrease
same,hepatic lipid content,Dark Agouti (DA) rats,significantly increased
same,hepatic steatosis,"Dark Agouti (DA) rats; 8 weeks, plasma concentrations similar to those causing hepatotoxicity in humans",causes hepatic steatosis
"C1CCC(C(CC2CCCCN2)C2CCCCC2)CC1 (single isomer, unassigned; (-)) [(−)-perhexyline, (−)-enantiomer of perhexyline]",neural sensory function (Von Frey hairs),Dark Agouti rats,did not
same,"tissue distribution, pure enantiomer vs as part of the racemic formulation",[3]; [5],similar
same,plasma concentration,[3],0.22 to 0.39 mg/L
same,EC50,human neutrophil NOX2,1300 nM
same,PDH deactivation (measured as phosphorylated PDH),[4],extremely potent inhibitor
same,inhibition of PDH deactivation compared with (+)-perhexyline,[4],more potent
same,total PDH expression,[4],did not affect
same,isoprenaline-induced myocardial damage (histological score),rat isoprenaline model,attenuated
same,effect on isoprenaline-induced rise in plasma troponin T,[2],exacerbated
same,isoprenaline-induced increase in myocardial TXNIP staining,TXNIP,attenuated
same,hepatic glycogen content,Dark Agouti (DA) rats,significantly increased
same,hepatic lipid content,Dark Agouti (DA) rats,no effect
